From patent US11833128B2, “Ketone carbonyl-containing hydrophobic antitumor drug and conjugate thereof as well as nano preparation containing conjugate, preparation method therefor, and application thereof” (Jiangsu Jibeier Pharmaceutical Co. Ltd., priority 2018, dated 2023)

Tests used:
Hela tumor = experiment: Effects of the pH-responsive nano preparations on tumor in vivo (Hela tumor-bearing mice); details: tail vein, once every seven days x3; for relative tumor inhibition rate: 30th day from the last administration
Method: Hela tumor-bearing mice were divided into four groups with five mice in each group. The first, second, and third groups were the treatment groups, in which tumor treatment was carried out by respectively injecting the drug via the tail vein of each Hela tumor-bearing mouse. […] The fourth group was the blank control group.
The mice in the first, second and third groups were treated by administering drugs once every seven days for a total of three injections. Each tumor-bearing mouse in each group was labeled, and the body weight and the tumor volume thereof throughout the treatment process were recorded. The tumor volume was calculated according to the following formula: V (mm^3)=½×length (mm)×width (mm)^2.
Moreover, the relative tumor inhibition rate was also calculated and analyzed.

[1] = system: human lung cancer A549 xenograft; experiment: Tumor inhibitory effect of DTX-AI in nude mice bearing human lung cancer A549 xenograft; details: iv x 4 (qw); for Animal body weight (g) (After tumor removal): Day 43; for Tumor inhibition rate %: Day 43 (21st day from the last administration);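 for all read-outs here: mice implanted subcutaneously with A549 tumor fragments, grouped 14 days later at mean tumor volume near 210–250 mm^3, grouping set as Day 0, animals sacrificed on Day 43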
Source text: A well-grown A549 lung cancer solid tumor was taken and cut into uniform small masses having a size of about 3 mm under sterile conditions. Each mouse was inoculated subcutaneously under the right armpit with one mass by using a trocar. 14 days after inoculation, the average tumor volume was about 210 to 250 mm^3. The mice were grouped according to the tumor sizes, and the average tumor volume of each group was basically the same. […] The long diameters (a) and the short diameters (b) of the tumors were measured with an electronic digital caliper twice a week. The calculation formula of tumor volume (TV) was: TV=½×a×b^2. The calculation formula of the relative tumor volume (RTV) was: RTV=Vt/V0, wherein V0 was the tumor volume measured at the time of grouping (namely, d0), and Vt was the tumor volume at each measurement. […] On Day 43 (56 days after inoculation), the animals were sacrificed and dissected, the tumors were incised and weighed, and the body weights of the animals after tumor removal were calculated.

SMILES: CC(=O)OC12COC1CC(O)C1(C)C(=O)C(OC(=O)Nc3ccc(C(C)=O)cc3)C3=C(C)C(OC(=O)C(O)C(NC(=O)OC(C)(C)C)c4ccccc4)CC(O)(C(OC(=O)c4ccccc4)C21)C3(C)C (stereo not shown) [DTX-AI]
- relative tumor volume after 21 days (after the administration was stopped) (FIG. 5) (Hela tumor; 40 mg DTX/kg): still showed a decreasing trend with time
- tumor sizes after the completion of the treatment (photograph, FIG. 7) (Hela tumor; 40 mg DTX/kg): significantly smaller than those of the first group and the blank control group
- relative tumor inhibition rate (Hela tumor; 40 mg DTX/kg): 93.5%
- body weights of the mice over treatment time (FIG. 4) (Hela tumor; 40 mg DTX/kg, compared with blank control group): basically the same as those in the blank control group
- RTV (Day 43) ([1]; 20 mg/kg): 6.62 ± 2.10
- body weights of the animals after administering (FIG. 9), in words ([1]; 20 mg/kg): basically not affected
- Animal body weight (g) (After tumor removal) ([1]; 20 mg/kg): 25.52 ± 0.99 g
- Tumor inhibition rate % ([1]; 20 mg/kg): 62.38%
- tumor rebound after drug withdrawal ([1]; 40 mg/kg, 60 mg/kg and 80 mg/kg groups): no tumor rebound occurred
- RTV (Day 43) ([1]; 40 mg/kg): 0.13 ± 0.03
- body weights of the animals after administering (FIG. 9), in words ([1]; 40 mg/kg): slightly reduced
- Animal body weight (g) (After tumor removal) ([1]; 40 mg/kg): 24.07 ± 1.19 g
- Tumor inhibition rate % ([1]; 40 mg/kg): 99.28%
- RTV (Day 43) ([1]; 60 mg/kg): 0.09 ± 0.02
- body weights of the animals after administering (FIG. 9), in words ([1]; 60 mg/kg): slightly reduced
- Animal body weight (g) (After tumor removal) ([1]; 60 mg/kg): 24.24 ± 1.43 g
- Tumor inhibition rate % ([1]; 60 mg/kg): 99.50%
- RTV (Day 43) ([1]; 80 mg/kg): 0.13 ± 0.05
- body weights of the animals after administering (FIG. 9), in words ([1]; 80 mg/kg): reduced
- Animal body weight (g) (After tumor removal) ([1]; 80 mg/kg): 20.99 ± 2.86 g
- Tumor inhibition rate % ([1]; 80 mg/kg): 99.27%
- death of animals ([1]; 4 dose groups (20, 40, 60, 80 mg/kg)): No death occurred

SMILES: CC(=O)O[C@@]12CO[C@@H]1C[C@H](O)[C@@]1(C)C(=O)[C@H](O)C3=C(C)[C@@H](OC(=O)[C@H](O)[C@@H](NC(=O)OC(C)(C)C)c4ccccc4)C[C@@](O)([C@@H](OC(=O)c4ccccc4)[C@H]21)C3(C)C [Docetaxel, docetaxel, reference compound]
- relative tumor volume after 21 days (after the administration was stopped) (FIG. 5) (Hela tumor; 25 mg DTX/kg): continued to increase with time
- relative tumor inhibition rate (Hela tumor; 25 mg DTX/kg): 67.62%
- RTV (Day 43) ([1]; 20 mg/kg): 2.73 ± 1.36
- body weights of the animals after administering (FIG. 9), in words ([1]; 20 mg/kg): reduced
- death of animals ([1]; 20 mg/kg): no death
- Animal body weight (g) (After tumor removal) ([1]; 20 mg/kg): 25.35 ± 1.15 g
- Tumor inhibition rate % ([1]; 20 mg/kg): 84.50%
- RTV (Day 43) ([1]; 40 mg/kg): 0.13 ± 0.02
- body weights of the animals after administering (FIG. 9), in words ([1]; 40 mg/kg): severely reduced
- Animal body weight (g) (After tumor removal) ([1]; 40 mg/kg): 18.71 ± 2.78 g
- Tumor inhibition rate % ([1]; 40 mg/kg): 99.24%
- death of animals (number of animals died) ([1]; 40 mg/kg, died on Day 33): 1 animal
